Source: patent US8188069B2, “Azepine derivatives as gamma-secretase inhibitors” (Eli Lilly and Company, priority 2007, dated 2012)

Legend:
[1] = tested on: β-amyloid peptide production in 293 751 SWE cells (HEK293 transfected with APP751 Swedish mutation); assay: In vitro inhibition of β-amyloid production (ELISA, 293 751 SWE cells); type: cell-based, human; settings: two hour incubation, n = 3
Description: This screening assay employed cells (HEK293=human kidney cell line) which were stably transfected with the gene for amyloid precursor protein 751 (APP751) containing the double mutation Lys651Met652 to Asn651Leu652 (APP751 numbering) in the manner described in International Patent Application Publication No. 94/10569. This mutation is commonly called the Swedish mutation and the cells, designated as “293 751 SWE”, were plated in Corning 96-well plates at 2-4×10^4 cells per well in Dulbecco's minimal essential media (Sigma, St. Louis, Mo.) plus 10% fetal bovine serum. Cell number is important in order to achieve β-amyloid ELISA results within the linear range of the assay (˜0.03 to 1.0 ng per mL).
Following overnight incubation at 37° C. in an incubator equilibrated with 5% carbon dioxide, media are removed and replaced with a stock solution of test compound (200 μL per well) for a two hour incubation period.
At the end of the incubation period, 100 μL from each well, of conditioned media or appropriate dilutions thereof are transferred into an ELISA plate pre-coated with antibody 266 [P. Seubert, Nature (1992) 359:325-327] against amino acids 13-28 of β-amyloid peptide as described in International Patent Application Publication No. 94/10569 and stored at 4° C. overnight. An ELISA assay employing labeled antibody 3D6 [P. Seubert, Nature (1992) 359:325-327] against amino acids 1-5 of β-amyloid peptide is run the next day to measure the amount of β-amyloid peptide produced. The results of the β-amyloid peptide ELISA are fit to a standard curve and expressed as ng/mL β-amyloid peptide and the concentration of test compounds producing 50% inhibition (IC50) of β-amyloid peptide production are estimated using a four parameter logistic model within Graph Pad Prism (San Diego, Calif.).

plasma A-beta = assay: In vivo suppression of β-amyloid, blood assay (plasma total β-amyloid ELISA); set-up: species or system PDAPP mice; settings: 3 mg/kg b.i.d. for 7 days; p<0.001 relative to vehicle control
Description: (§1) This example illustrates how the compounds of this invention could be tested for in vivo suppression of β-amyloid release and/or synthesis. For these experiments, 3 to 4 month old PDAPP mice are used [Games et al., (1995) Nature 373:523-527]. Depending upon which compound is being tested, the compound is usually formulated at between 1 and 10 mg/mL. Because of the low solubility factors of the compounds, they may be formulated with various vehicles, such as corn oil; 10% ethanol in corn oil; 2-hydroxypropyl-β-cyclodextrin (Research Biochemicals International, Natick, Mass.); and carboxy-methyl-cellulose (Sigma Chemical Co., St. Louis, Mo.).
For acute efficacy studies, PDAPP mice are dosed orally by gavage and 3 hours later the animals are euthanized via CO2 narcosis. For sub-chronic studies, PDAPP mice are dosed once-a-day or twice-a-day for 7 days, and sacrificed 3 hours after the last dose. […]
The Total β-amyloid 1-x sandwich ELISA, quantitating essentially all species of β-amyloid (including β-amyloid 1-40 and β-amyloid 1-42), employs two monoclonal antibodies (mAb) to β-amyloid. […]
The 266 and 21F12 capture mAbs are coated at 10 μg into 96-well immunoassay plates (Costar, Cambridge, Mass.) overnight at room temperature. […] Reaction product is quantified using a Molecular Devices Vmax (Molecular Devices, Menlo Park, Calif.) measuring the difference in absorbance at 450 nm and 650 nm. […]

Hippocampal Total A-beta = assay: In vivo suppression of β-amyloid, brain assay (hippocampal total A-beta ELISA); settings: young heterozygous PDAPP mice, sacrifice 3 hours post-administration
Description: as §1
For acute efficacy studies, PDAPP mice are dosed orally by gavage and 3 hours later the animals are euthanized via CO2 narcosis. For sub-chronic studies, PDAPP mice are dosed once-a-day or twice-a-day for 7 days, and sacrificed 3 hours after the last dose. Blood is taken by cardiac puncture using a 1 cc 25G ⅝″ tuberculin syringe/needle coated with solution of 0.5 M EDTA, pH 8.0. The blood is placed in a Becton-Dickinson vacutainer tube containing EDTA and spun down for 15 minutes at 1500×g at 5° C. The brains of the mice are then removed and the cortex and hippocampus are dissected out, placed in labeled eppendorf tubes and rapidly frozen on dry ice.
To prepare hippocampal and cortical tissue for enzyme-linked immunosorbent assays (ELISAs) each brain region is homogenized in 10 volumes of ice cold guanidine buffer (5.0 M guanidine-HCl, 50 mM Tris-HCl, pH 8.0) using a Polytron. The homogenates are gently rocked on a rotating platform for three to four hours at room temperature and stored at −20° C. prior to quantitation of β-amyloid.
The brain homogenates are diluted 1:10 with ice-cold casein buffer [0.25% casein, phosphate buffered saline (PBS), 0.05% sodium azide, 20 μg/ml aprotinin, 5 mM EDTA, pH 8.0, 10 μg/ml leupeptin], thereby reducing the final concentration of guanidine to 0.5 M, before centrifugation at 16,000×g for 20 minutes at 4° C. Samples are further diluted, if necessary, to achieve an optimal range for the ELISA measurements by the addition of casein buffer with 0.5 M guanidine hydrochloride added. The β-amyloid standards (1-40 or 1-42 amino acids) are prepared such that the final composition equaled 0.5 M guanidine in the presence of 0.1% bovine serum albumin (BSA).
The Total β-amyloid 1-x sandwich ELISA, quantitating essentially all species of β-amyloid (including β-amyloid 1-40 and β-amyloid 1-42), employs two monoclonal antibodies (mAb) to β-amyloid. The capture antibody, 266 [P. Seubert, Nature (1992) 359:325-327], is specific to amino acids 13-28 of β-amyloid. The antibody 3D6 [Johnson-Wood et al., PNAS USA (1997) 94:1550-1555], which is specific to amino acids 1-5 of β-amyloid, is biotinylated and served as the reporter antibody in the assay. The 3D6 biotinylation procedure employs the manufacturer's (Pierce, Rockford, Ill.) protocol for NHS-biotin labeling of immunoglobulins except that 100 mM sodium bicarbonate, pH 8.5 buffer is used.
The 266 and 21F12 capture mAbs are coated at 10 μg into 96-well immunoassay plates (Costar, Cambridge, Mass.) overnight at room temperature. The plates are then aspirated and blocked with 0.25% human serum albumin in PBS buffer for at least 1 hour at room temperature, then stored desiccated at 4° C. until use. The plates are rehydrated with wash buffer (Tris-buffered saline, 0.05% Tween 20) prior to use. […]

Structure (SMILES): CC(C)C1=CC(NC(=O)[C@H](C)NC(=O)[C@@H](O)C(C)C)C(=O)N(C)C=C1 (single isomer, unassigned) [3 (diastereomer 1)]
- IC50 [1]: 10700 ± 1800 nM

Structure (SMILES): CC(C)C1=CC(NC(=O)[C@H](C)NC(=O)[C@@H](O)C(C)C)C(=O)N(C)C=C1 (single isomer, unassigned) [3 (diastereomer 2)]
- IC50 [1]: 36 ± 1 nM

Structure (SMILES): CC(C)[C@H](O)C(=O)N[C@@H](C)C(=O)N[C@H]1C=C(c2ccccc2)C=CN(C)C1=O (single isomer, unassigned) [1 (diasteromer 2)]
- IC50 ([1]; Homo sapiens, HEK293, 2 h): 5 ± 0.7 nM
- reduction of plasma A-beta (plasma A-beta): 54%
- Hippocampal Total A-beta % REDUCTION (Hippocampal Total A-beta; 0.1 mg/kg oral, n = 1 experiment): 18%
- Hippocampal Total A-beta % REDUCTION (Hippocampal Total A-beta; 0.3 mg/kg oral, mean ± SD, n = 2 experiments): 31 ± 13%
- Hippocampal Total A-beta % REDUCTION (Hippocampal Total A-beta; 1 mg/kg oral, mean ± SD, n = 3 experiments): 48 ± 11%
- Hippocampal Total A-beta % REDUCTION (Hippocampal Total A-beta; 3 mg/kg oral, mean ± SD, n = 5 experiments): 59 ± 5%
- Hippocampal Total A-beta % REDUCTION (Hippocampal Total A-beta; 10 mg/kg oral, n = 1 experiment): 69%

Structure (SMILES): CC(C)[C@H](F)C(=O)N[C@@H](C)C(=O)NC1C=C(c2ccccc2)C=CN(C)C1=O (single isomer, unassigned) [2 (diastereomer 2)]
- IC50 [1]: 8 ± 0.8 nM

Structure (SMILES): CC(C)[C@H](F)C(=O)N[C@@H](C)C(=O)NC1C=C(c2ccccc2)C=CN(C)C1=O (single isomer, unassigned) [2 (diastereomer 1)]
- IC50 [1]: 3330 ± 430 nM
